Experimental data reported in ChEMBL document CHEMBL4706474, “Tetrahydro-2-naphthyl and 2-Indanyl Triazolopyrimidines Targeting Plasmodium falciparum Dihydroorotate Dehydrogenase Display Potent and Selective Antimalarial Activity” (J Med Chem, 2016).
pEC50, pIC50: −log10 of the molar value. In brackets after ≈: the same amount, converted by molar mass. Activity calls are given as the source filed them. The calls are words filed in the database; no cut-off is given here.

Tests used:
[1] = Inhibition of N-terminal His6-tagged Plasmodium vivax DHODH expressed in Escherichia coli BL21 using L-DHO as substrate and CoQ as co-substrate by DCIP dye based spectrophotometric assay
[2] = Intrinsic clearance in human pooled liver microsomes assessed per mg protein at 1 uM by LC-MS analysis; type: ADME, Microsome; conditions: microsomes, 1 µM
[3] = Elimination half-life in Swiss mouse at 20 mg/kg, po administered as single dose via gavage measured over 24 hrs by LC-MS analysis; type: ADME, organism-based; conditions: in vivo, read-out: beta t1/2 (converted)
Plasmodium falciparum [4] = assay: Antimalarial activity against Plasmodium falciparum D6; type: functional, organism-based
[5] = AUC (0 to infinity) in Swiss mouse at 20 mg/kg, po administered as single dose via gavage measured over 24 hrs by LC-MS analysis; type: ADME, organism-based; set-up: route oral, dose 20 mg/kg, time >24; conditions: in vivo
[6] = Inhibition of N-terminal His6-tagged Plasmodium falciparum DHODH expressed in Escherichia coli BL21 using L-DHO as substrate and CoQ as co-substrate by DCIP dye based spectrophotometric assay
[7] = target: Dihydroorotate dehydrogenase (quinone), mitochondrial (Homo sapiens, UniProt Q02127); assay: Inhibition of N-terminal His6-tagged human DHODH expressed in Escherichia coli BL21 using L-DHO as substrate and CoQ as co-substrate by DCIP dye based spectrophotometric assay
Cytochrome P450 2C9 = Cytochrome P450 2C9 (Homo sapiens, UniProt P11712); assay: Inhibition of CYP2C9 in human liver microsomes using isoform-specific probe substrates in presence of NADPH-generating system by LC-MS analysis; type: ADME
[8] = Solubility of compound in FaSSIF at pH 6.5 measured after 5 to 6 hrs by HPLC-UV based analysis
Cytochrome P450 3A4 = Cytochrome P450 3A4 (Homo sapiens, UniProt P08684); assay: Inhibition of CYP3A4 in human liver microsomes using isoform-specific probe substrates in presence of NADPH-generating system by LC-MS analysis; type: ADME; conditions: read-out: IC50
[9] = Lipophilicity, logD of the compound at pH 7.4; type: physicochemical; conditions: buffer
[10] = Protein binding in mouse plasma assessed as bound fraction by LC-MS analysis based ultracentrifugation assay; type: ADME, cell-free; conditions: read-out: PPB (converted)
Plasmodium falciparum [11] = assay: Antimalarial activity against pyrimethamine resistant Plasmodium falciparum HB3; type: functional, organism-based
Plasmodium falciparum [12] = assay: Antiplasmodial activity against Plasmodium falciparum 3D7 infected in po dosed NSG mouse assessed as reduction in parasitemia administered once daily for 4 consecutive days starting from day 3 post-infection and measured 24 hrs post last dose by flow cytometric analysis; type: functional; conditions: 3D7, po, 96 h, time 4 day
[13] = Solubility of compound in 0.1 N HCl measured after 5 to 6 hrs by HPLC-UV based analysis; type: physicochemical; conditions: buffer; time 5-6 hrs
Cytochrome P450 2B6 = target: T1, Cytochrome P450 2B6 (Homo sapiens, UniProt P20813); assay: Inhibition of CYP2B6 in human liver microsomes using isoform-specific probe substrates in presence of NADPH-generating system by LC-MS analysis; type: ADME
T1 sequence (P20813 whole entry): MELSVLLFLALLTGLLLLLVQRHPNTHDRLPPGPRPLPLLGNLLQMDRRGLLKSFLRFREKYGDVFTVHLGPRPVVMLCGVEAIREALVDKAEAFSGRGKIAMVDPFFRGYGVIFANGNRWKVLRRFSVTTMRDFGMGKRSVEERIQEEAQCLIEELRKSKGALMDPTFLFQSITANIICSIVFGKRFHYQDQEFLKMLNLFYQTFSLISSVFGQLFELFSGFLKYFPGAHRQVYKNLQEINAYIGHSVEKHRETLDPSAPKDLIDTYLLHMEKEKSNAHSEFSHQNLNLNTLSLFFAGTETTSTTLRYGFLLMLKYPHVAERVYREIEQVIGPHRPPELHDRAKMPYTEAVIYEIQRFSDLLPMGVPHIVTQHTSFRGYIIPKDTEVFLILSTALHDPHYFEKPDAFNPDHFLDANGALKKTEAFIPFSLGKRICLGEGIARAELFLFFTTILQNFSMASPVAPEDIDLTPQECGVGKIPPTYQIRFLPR

[14] = Unbound AUC (0 to infinity) in Swiss mouse at 20 mg/kg, po administered as single dose via gavage measured over 24 hrs by LC-MS analysis; type: ADME, organism-based; conditions: in vivo
Cytochrome P450 2D6 = Cytochrome P450 2D6 (Homo sapiens, UniProt P10635); assay: Inhibition of CYP2D6 in human liver microsomes using isoform-specific probe substrates in presence of NADPH-generating system by LC-MS analysis; type: ADME
[15] = Protein binding in human plasma assessed as bound fraction by LC-MS analysis based ultracentrifugation assay; type: ADME, cell-free; conditions: read-out: PPB (converted)
[16] = Inhibition of N-terminal His6-tagged dog DHODH expressed in Escherichia coli BL21 using L-DHO as substrate and CoQ as co-substrate by DCIP dye based spectrophotometric assay; set-up: species or system Canis lupus familiaris
Plasmodium falciparum [17] = assay: Antimalarial activity against chloroquine, pyrimethamine and cycloguanil resistant Plasmodium falciparum K1; type: functional, organism-based
[18] = Intrinsic clearance in rat liver microsomes assessed per mg protein at 1 uM by LC-MS analysis; type: ADME, Microsome; conditions: microsomes, 1 µM
[19] = Kinetic solubility of compound in phosphate buffer at pH 6.5 measured after 30 mins by HPLC-UV based analysis; type: physicochemical; conditions: phosphate buffer, pH 6.5, read-out: Kinetic_solubility
[20] = Protein binding in rat plasma assessed as bound fraction by LC-MS analysis based ultracentrifugation assay; type: ADME, cell-free; conditions: read-out: PPB (converted)
Cytochrome P450 1A2 = target: T2, Cytochrome P450 1A2 (Homo sapiens, UniProt P05177); assay: Inhibition of CYP1A2 in human liver microsomes using isoform-specific probe substrate in presence of NADPH-generating system by LC-MS analysis; type: ADME
T2 sequence (P05177 whole entry): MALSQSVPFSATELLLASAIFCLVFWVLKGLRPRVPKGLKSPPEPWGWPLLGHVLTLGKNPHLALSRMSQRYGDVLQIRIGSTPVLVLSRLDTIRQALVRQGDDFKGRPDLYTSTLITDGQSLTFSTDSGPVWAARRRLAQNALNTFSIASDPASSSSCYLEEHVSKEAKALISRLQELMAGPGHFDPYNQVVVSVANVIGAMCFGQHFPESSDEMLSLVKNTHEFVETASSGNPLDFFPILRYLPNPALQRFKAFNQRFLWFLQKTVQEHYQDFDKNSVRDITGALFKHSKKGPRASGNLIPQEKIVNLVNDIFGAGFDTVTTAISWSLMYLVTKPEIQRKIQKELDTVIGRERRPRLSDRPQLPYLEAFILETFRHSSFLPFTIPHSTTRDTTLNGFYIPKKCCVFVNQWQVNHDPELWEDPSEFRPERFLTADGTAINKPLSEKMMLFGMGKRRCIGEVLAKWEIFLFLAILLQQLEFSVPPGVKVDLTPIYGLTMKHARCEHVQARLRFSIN

Plasmodium falciparum [21] = assay: Antiplasmodial activity against Plasmodium falciparum 3D7 infected in RBC assessed as reduction in parasitemia incubated for 72 hrs by SYBR green dye-based assay; type: functional, organism-based; conditions: Plasmodium falciparum, 3D7, Erythrocyte, 72 h
[22] = target: Dihydroorotate dehydrogenase (quinone), mitochondrial (Mus musculus, UniProt O35435)
[23] = Intrinsic clearance in mouse liver microsomes at 1 uM by LC-MS analysis; type: ADME, Microsome

Sequence of Cytochrome P450 2D6 (P10635 whole entry, canonical isoform): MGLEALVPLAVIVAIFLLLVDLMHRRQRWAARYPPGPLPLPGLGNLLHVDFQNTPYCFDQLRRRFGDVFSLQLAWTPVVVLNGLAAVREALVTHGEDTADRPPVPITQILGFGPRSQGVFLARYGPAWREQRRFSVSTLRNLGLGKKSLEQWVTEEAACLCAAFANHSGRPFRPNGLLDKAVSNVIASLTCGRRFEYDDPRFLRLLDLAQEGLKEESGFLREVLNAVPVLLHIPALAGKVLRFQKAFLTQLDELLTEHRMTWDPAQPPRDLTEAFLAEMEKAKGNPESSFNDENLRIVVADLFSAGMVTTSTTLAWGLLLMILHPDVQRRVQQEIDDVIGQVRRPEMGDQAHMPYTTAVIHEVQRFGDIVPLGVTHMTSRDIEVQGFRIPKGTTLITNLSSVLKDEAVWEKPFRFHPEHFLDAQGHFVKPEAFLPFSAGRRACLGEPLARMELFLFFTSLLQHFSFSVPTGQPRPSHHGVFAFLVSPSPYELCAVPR
Sequence of Dihydroorotate dehydrogenase (quinone), mitochondrial (Homo sapiens, UniProt Q02127) (Q02127 whole entry, canonical isoform): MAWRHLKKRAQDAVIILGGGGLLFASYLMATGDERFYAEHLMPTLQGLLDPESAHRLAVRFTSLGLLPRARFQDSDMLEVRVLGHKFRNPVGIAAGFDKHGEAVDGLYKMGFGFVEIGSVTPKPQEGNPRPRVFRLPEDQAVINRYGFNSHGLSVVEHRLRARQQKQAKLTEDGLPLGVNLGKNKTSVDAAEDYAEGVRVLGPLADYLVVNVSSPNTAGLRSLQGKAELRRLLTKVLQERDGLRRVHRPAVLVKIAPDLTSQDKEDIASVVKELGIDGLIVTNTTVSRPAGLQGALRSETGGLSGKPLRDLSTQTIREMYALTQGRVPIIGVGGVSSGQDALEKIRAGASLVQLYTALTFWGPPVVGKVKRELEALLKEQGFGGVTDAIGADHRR
Sequence of Cytochrome P450 3A4 (P08684 whole entry, canonical isoform): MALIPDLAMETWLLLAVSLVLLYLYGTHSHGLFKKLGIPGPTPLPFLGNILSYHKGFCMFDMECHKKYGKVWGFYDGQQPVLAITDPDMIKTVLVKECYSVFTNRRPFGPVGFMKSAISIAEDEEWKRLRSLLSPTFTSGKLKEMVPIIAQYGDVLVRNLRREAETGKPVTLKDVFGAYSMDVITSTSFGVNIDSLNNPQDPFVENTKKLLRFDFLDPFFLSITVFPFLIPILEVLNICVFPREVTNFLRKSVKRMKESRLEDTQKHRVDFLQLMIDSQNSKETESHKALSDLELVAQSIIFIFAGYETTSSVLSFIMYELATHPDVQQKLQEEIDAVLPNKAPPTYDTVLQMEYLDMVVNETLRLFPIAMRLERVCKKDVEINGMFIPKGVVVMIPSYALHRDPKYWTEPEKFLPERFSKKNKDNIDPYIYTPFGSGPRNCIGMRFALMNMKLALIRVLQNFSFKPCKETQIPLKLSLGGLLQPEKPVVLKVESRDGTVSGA
Sequence of Cytochrome P450 2C9 (P11712 whole entry, canonical isoform): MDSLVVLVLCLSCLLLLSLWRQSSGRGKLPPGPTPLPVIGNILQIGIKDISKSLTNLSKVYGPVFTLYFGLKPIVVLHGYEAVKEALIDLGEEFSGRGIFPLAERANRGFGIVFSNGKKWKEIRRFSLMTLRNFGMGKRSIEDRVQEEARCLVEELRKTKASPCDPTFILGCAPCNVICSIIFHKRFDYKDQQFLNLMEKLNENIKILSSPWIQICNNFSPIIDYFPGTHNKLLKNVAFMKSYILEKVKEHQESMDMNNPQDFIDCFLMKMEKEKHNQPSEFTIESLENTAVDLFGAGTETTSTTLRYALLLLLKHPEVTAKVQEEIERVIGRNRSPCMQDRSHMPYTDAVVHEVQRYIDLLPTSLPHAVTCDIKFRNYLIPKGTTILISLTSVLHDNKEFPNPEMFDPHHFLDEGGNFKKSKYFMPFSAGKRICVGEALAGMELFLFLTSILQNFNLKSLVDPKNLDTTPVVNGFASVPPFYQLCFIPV
Sequence of Dihydroorotate dehydrogenase (quinone), mitochondrial (Mus musculus, UniProt O35435) (O35435 whole entry): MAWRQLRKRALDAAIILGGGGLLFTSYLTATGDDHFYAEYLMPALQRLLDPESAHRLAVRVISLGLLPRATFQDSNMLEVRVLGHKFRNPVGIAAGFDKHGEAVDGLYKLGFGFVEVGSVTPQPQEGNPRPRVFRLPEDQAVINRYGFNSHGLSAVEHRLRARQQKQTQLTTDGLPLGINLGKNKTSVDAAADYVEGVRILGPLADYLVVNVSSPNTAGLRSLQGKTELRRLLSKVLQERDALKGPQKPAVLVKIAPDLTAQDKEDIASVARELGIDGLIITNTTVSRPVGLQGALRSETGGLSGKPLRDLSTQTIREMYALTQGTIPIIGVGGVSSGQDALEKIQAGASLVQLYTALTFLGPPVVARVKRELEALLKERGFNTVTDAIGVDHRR

In the case of `Cc1cc(N[C@H]2CCc3ccc(Cl)cc3C2)n2nc(C(C)(F)F)nc2n1`, the pIC50 [1] was 8.00, the microsomal intrinsic clearance [2] was < 7 µL/min and the half-life [3] was 2 h. For the same compound, the Activity (Plasmodium falciparum [4]) was “Active”, the AUC [5] was 22.7 µM·h and the pIC50 [6] was 8.20. For the same compound, the pIC50 [7] was < 4.00, the pIC50 (Cytochrome P450 2C9) was 5.68 and the solubility [8] was 12 µg/mL (≈ 31.8 µM). For the same compound, the pIC50 (Cytochrome P450 3A4) was < 4.70, the logD [9] was 3.9 and the fraction unbound [10] was 0.026. For the same compound, the Activity (Plasmodium falciparum [11]) was “Active”, the ED90 (Plasmodium falciparum [12]) was 19 mg/kg and the solubility [13] was 105 µg/mL (≈ 278 µM). The pIC50 (Cytochrome P450 2B6) was < 4.70, the fAUC [14] was 0.59 µM·h and the pIC50 (Cytochrome P450 2D6) was 5.57. For the same compound, the fraction unbound [15] was 0.033, the pIC50 [16] was < 4.00 and the Activity (Plasmodium falciparum [17]) was “Active”. The “Intrinsic clearance in rat liver microsomes (uL/min/mg protein)” value [18] was 38 µL/min, the solubility kinetic at 0.5 h [19] was 3.1 µg/mL (≈ 8.2 µM) and the fraction unbound [20] was 0.036. For the same compound, the pIC50 (Cytochrome P450 1A2) was < 4.70, the pEC50 (Plasmodium falciparum [21]) was 8.92 and the pIC50 [22] was < 4.00. It also gave an intrinsic clearance [23] of 31 µL/min.

With `Cc1cc(NC2Cc3cc(F)c(F)cc3C2)n2nc(C(C)(F)F)nc2n1` the pIC50 [1] was 6.43, the microsomal intrinsic clearance [2] was < 7 µL/min and the half-life [3] was 2 h. For the same compound, the Activity (Plasmodium falciparum [4]) was “Active”, the AUC [5] was 169 µM·h and the pIC50 [6] was 7.28. For the same compound, the pIC50 [7] was < 4.00, the pIC50 (Cytochrome P450 2C9) was 4.73 and the solubility [8] was 15 µg/mL (≈ 41.1 µM). The pIC50 (Cytochrome P450 3A4) was < 4.70, the logD [9] was 3.4 and the fraction unbound [10] was 0.047. For the same compound, the Activity (Plasmodium falciparum [11]) was “Active”, the ED90 (Plasmodium falciparum [12]) was 35 mg/kg and the solubility [13] was 180 µg/mL (≈ 493 µM). The pIC50 (Cytochrome P450 2B6) was < 4.70, the fAUC [14] was 7.9 µM·h and the pIC50 (Cytochrome P450 2D6) was 5.23. The fraction unbound [15] was 0.066, the pIC50 [16] was < 4.00 and the Activity (Plasmodium falciparum [17]) was “Active”. For the same compound, the “Intrinsic clearance in rat liver microsomes (uL/min/mg protein)” value [18] was < 7 µL/min, the solubility kinetic at 0.5 h [19] was 6.3 µg/mL (≈ 17.2 µM) and the fraction unbound [20] was 0.058. For the same compound, the pIC50 (Cytochrome P450 1A2) was < 4.70, the pEC50 (Plasmodium falciparum [21]) was 7.40 and the pIC50 [22] was < 4.00. The intrinsic clearance [23] was 21 µL/min.
